Experimental data published in patent US20060058312A1, “Stabilized aqueous preparation for injection” (priority 2004, published 2006).
Like-named read-outs stand apart in the source and are kept apart here.

What was measured:
[1] = Content during storage of the preparation of the present invention; type: physicochemical; details: storage at 40° C./4 months (equivalent to 25° C./2 years)
From the text: In the preparation of the present invention, the pH value of the aqueous preparation is most desirably 6 to 7, the antioxidant is a combination of ascorbic acid with sodium pyrosulfite, and the concentration of the antioxidant is 0.1 to 0.3 w/v %. However, in the case where the concentration of sodium pyrosulfite is not less than 0.2 w/v %, precipitants form in the aqueous preparation. The preparation of the present invention is desirably included in an inner container, e.g., a syringe in a double package form which comprises an inner container and an outer bag, where a deoxidant (oxygen absorber) is placed between the inner container and the outer bag. The preparation of the present invention can be used as a pharmaceutical. The content of calcium salt of 5-formyl-(6S)-tetrahydrofolic acid (i.e. calcium levofolinate) is 90% or more during storage at 40° C./4 months (this condition is equivalent to 25° C./2 years)

[2] = type: physicochemical; details: buffer, 13 mg/mL, pH 6.2
Method: For the aqueous preparations obtained in (1) to (3) above, tests evaluating stability at 60° C./3 weeks were performed. The calcium levofolinate content remaining in the aqueous solution was measured using high performance liquid chromatography under the following conditions (the same were employed in the following experiments) 2 ml each of the test preparations were weighed, and 10 ml of the internal standard solution described below (the same was employed in the following experiments) were added thereto. Subsequently, water was added to adjust the total volume of the solution to 50 ml, thereby to prepare a test solution. Meanwhile, 62.5 mg of calcium levofolinate were dissolved in water so as to prepare a 25 ml solution. Then, to 10 ml of the resultant solution were added 10 ml of the internal standard solution, and the total volume of the solution was adjusted to 50 ml by adding water, thereby to prepare a standard solution. For 20 μl of the standard solution and the test solution, the content of calcium levofolinate was measured by the liquid chromatography method under the following conditions.
1) Measurement Conditions • Detector: Ultraviolet absorptiometer (Measurement wavelength: 254 nm) • Column: A stainless tube having an internal diameter of 4.0 mm and a length of 15 cm was filled with 5 μm of octadecylsilylated silica gel for liquid chromatography. • Column temperature: A constant temperature near 45° C. • Mobile phase: The pH value of a mixed test solution containing 0.008 mol/L of disodium hydrogen phosphate solution/methanol/40% aqueous tetrabutylammonium hydroxide solution (385:110:1.3 (volume ratio)) was adjusted to 7.5 by adding phosphoric acid. • Flow rate: The flow rate was regulated so that the retention time of calcium levofolinate became about 10 minutes. • Internal standard solution: A solution prepared by adding water to 0.04 g of methyl parahydroxybenzoate so that the whole amount of solution is 100 ml.
About 1100 ml of water for injection were added to a beaker. Then, 8.04 g of sodium chloride, 3.6 g of tromethamine, 3.6 g of ascorbic acid, and 1.2 g of sodium pyrosulfite were added thereto with bubbling of nitrogen gas, and the components were dissolved with stirring. To the resultant solution were added 15.62 g of calcium levofolinate, which were dissolved with stirring. Thereafter, the pH value of the solution was adjusted to 6.2 by adding 5% hydrochloric acid solution dropwise. Water for injection was further added to the solution to adjust the total volume to 1200 ml. Subsequently, the bubbling of nitrogen gas was stopped, and the solution was filtered with a filtration filter, thereby to yield a solution for injection. A 5 ml-syringe made of polypropylene, the inside space of which had been substituted by nitrogen gas, was filled with 5 ml of the resultant solution for injection, followed by steam sterilization under high pressure at 105° C. for 30 minutes. The thus-sterilized syringe was packaged together with a deoxidant, AGELESS ZP-50 (trade name, Mitsubishi Gas Chemical Company, Inc. Japan) by using a plastic film with high air impermeability.
For an aqueous preparation as obtained above, a stability test (60° C./75% RH, and 40° C./75% RH) was performed by measuring the content of calcium levofolinate remaining after storage for a certain period by the high performance liquid chromatography method.

content of calcium levofolinate during storage [1]: ≥ 90%
remaining ratio (%) of calcium levofolinate ([2]; 0 months): 100%
remaining ratio (%) of calcium levofolinate ([2]; 0 weeks): 100%
remaining ratio (%) of calcium levofolinate ([2]; 1 month): 101.2%
remaining ratio (%) of calcium levofolinate ([2]; 2 months): 100.2%
remaining ratio (%) of calcium levofolinate ([2]; 4 months): 95.7%
remaining ratio (%) of calcium levofolinate ([2]; 6 months): 92.8%
remaining ratio (%) of calcium levofolinate ([2]; 168 h): 99.0%
remaining ratio (%) of calcium levofolinate ([2]; 336 h): 97.5%
remaining ratio (%) of calcium levofolinate ([2]; 504 h): 95.8%
remaining ratio (%) of calcium levofolinate ([2]; 672 h): 94.3%
SMILES: Nc1nc(=O)c2c([nH]1)NC[C@H](CNc1ccc(C(=O)N[C@@H](CCC(=O)O)C(=O)O)cc1)N2C=O [calcium levofolinate, (6S)-N-[4-[[(2-amino-5-formyl-1,4,5,6,7,8-hexahydro-4-oxo-6-pteridinyl)methyl]amino]benzoyl]-L-glutamic acid]
